Assays:
Assay type in all cases: in vivo
[1] = system: AMBROSIA ARTEMISIIFOLIA, L.; assay: Postemergence herbicidal evaluation, AMBEL (Ragweed, Common)
Method in brief: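 Common ragweed (Ambrosia artemisiifolia) seedlings were raised in jiffy flats for roughly two weeks, then sprayed postemergence through a nozzle at 40 psi with the test compound dispersed in 50/50 acetone/water carrying 0.5% TWEEN®20. The plants were kept on greenhouse benches under conventional care. Four to five weeks later, injury was rated visually on a 0-9 scale, and repeat tests were averaged.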

[2] = system: GALIUM APARINE; assay: Postemergence herbicidal evaluation, GALAP (Galium); parameters: key to GALAP rating / Herbicidal effect rating, GALAP / GALAP: 0-9 visual rating scale vs untreated control
Method in brief: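 Galium (GALAP) seedlings were raised in jiffy flats for about two weeks, then sprayed with test compounds dispersed in 50/50 acetone/water containing 0.5% TWEEN®20, delivered through a nozzle at 40 psi. Plants were kept on greenhouse benches and visually rated 0-9 against a control four to five weeks later; repeat tests were averaged.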

[3] = system: CASSIA OBTUSIFOLIA, L.; assay: Postemergence herbicidal evaluation, CASOB (Sicklepod); parameters: key to CASOB rating / Herbicidal effect rating, CASOB / CASOB: 0-9 visual rating scale vs untreated control
Method in brief: (§1)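 Two-week-old seedlings sprayed with compound in 50/50 acetone/water plus 0.5% TWEEN 20 at about 0.125–0.500 kg/ha via nozzle at 40 psi. Kept in greenhouse; rated visually 4–5 weeks after treatment on a 0–9 scale versus untreated control, averaging repeat tests.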

[4] = system: ABUTILON THEOPHRASTI, MEDIC.; assay: Postemergence herbicidal evaluation, ABUTH (Velvetleaf); conditions: for ABUTH, herbicide rating (0-9): rated four to five weeks after treatment, averaged
Method in brief: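 Velvetleaf (Abutilon theophrasti) seedlings were raised in jiffy flats for about two weeks and then sprayed postemergence. The test compound was dispersed in a 50/50 acetone/water mixture containing 0.5% TWEEN®20 and applied through a nozzle operating at 40 psi. Plants were kept on greenhouse benches and rated 0-9 four to five weeks after treatment.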

[5] = system: IPOMOEA SPP.; assay: Postemergence herbicidal evaluation, IPOSS (Morningglory spp.); conditions: for IPOSS, herbicide rating (0-9): rated four to five weeks after treatment, averaged
Method in brief: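 Seedlings of morningglory (Ipomoea spp.) were raised in jiffy flats for roughly two weeks. They were then sprayed postemergence through a nozzle at 40 psi with test compound dispersed in 50/50 acetone/water containing 0.5% TWEEN®20 surfactant. Plants were kept on greenhouse benches under standard care and visually rated 0-9 against controls four to five weeks after treatment.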

[6] = system: CHENOPODIUM ALBUM, L.; assay: Preemergence herbicidal evaluation, CHEAL (Lambsquarters, Common); conditions: four to five weeks after treatment
Method in brief: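 Rated 0-9 by visual comparison with control (stand, vigor, malformation, size, chlorosis, overall appearance) four to five weeks after preemergence soil spray. Dose equivalent to about 0.125 to 0.50 kg per hectare, applied in aqueous acetone to freshly seeded cups kept in greenhouse.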

[7] = system: ECHINOCHLOA CRUS-GALLI, (L) BEAU; assay: Postemergence herbicidal evaluation, ECHCG (Barnyardgrass); parameters: key to ECHCG rating / Herbicidal effect rating, ECHCG / ECHCG: 0-9 visual rating scale vs untreated control
Method in brief: as §1

[8] = system: ZEA MAYS L.; assay: Postemergence herbicidal evaluation, ZEAMX (Corn, Field); conditions: for ZEAMX, herbicide rating (0-9): crop, rated four to five weeks after treatment, averaged
Method in brief: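 Corn seedlings were raised in jiffy flats for roughly two weeks, then sprayed postemergence with the test material dispersed in 50/50 acetone/water containing 0.5% TWEEN®20 surfactant, using a nozzle at 40 psi. Plants were kept on greenhouse benches under standard care and visually rated on a 0-9 scale four to five weeks after treatment.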

[9] = system: CHENOPODIUM ALBUM, L.; assay: Postemergence herbicidal evaluation, CHEAL (Lambsquarters, Common)
Method in brief: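 Seedlings of common lambsquarters (Chenopodium album) were raised in jiffy flats for roughly two weeks, then sprayed postemergence through a nozzle at 40 psi with test compound dispersed in 50/50 acetone/water containing 0.5% TWEEN®20 surfactant. Plants were kept on greenhouse benches under standard care and rated visually on a 0-9 scale versus controls.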

[10] = system: TRITICUM AESTIVUM, CV. APOLLO; assay: Postemergence herbicidal evaluation, TRZAWO (Wheat, Winter, CV. APOLLO)
Method in brief: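 Wheat seedlings, raised in jiffy flats for roughly two weeks, were sprayed postemergence with test compound dispersed in a 50/50 acetone/water mixture containing 0.5% TWEEN®20 surfactant, delivered through a nozzle at 40 psi. Plants were then kept on greenhouse benches under conventional care. Four to five weeks after treatment they were rated visually on a 0-9 scale against an untreated control, and ratings from repeated tests were averaged.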

[11] = system: ORYZA SATIVA, L. TEBONNET; assay: Rice tolerance to post-transplant applications under flooded paddy conditions, ORYSAT (Rice, Tebonnet); conditions: for ORYSAT herbicidal rating (rice tolerance): post-transplant rice, rated three to four weeks after treatment; for ORYSAT: post-transplanted rice;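 for ORYSAT herbicidal rating (rice tolerance): applied to flooded soil surface three days after transplanting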
Method in brief: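 Two ten-day-old Tebonnet rice seedlings were transplanted into silt loam and kept flooded 1.5 to 3 cm deep. Three days after transplanting, the flood surface received the compound in aqueous/acetone 50/50 v/v at about 0.5, 0.25, 0.125 or 0.063 kg/ha. Injury was rated visually on a 0-9 scale versus control after 3-4 weeks.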

## COC(=O)Cn1c(=O)n(C)c(=O)n(-c2cc(Oc3c(F)cc(C(F)(F)F)cc3Cl)ccc2F)c1=O [Compound 4, Methyl 3-{5-[(2-chloro-α,α,α,6-tetrafluoro-p-tolyl)oxy]-2-fluorophenyl}tetrahydro-5-methyl-2,4,6-trioxo-s-triazine-1(2H)-acetate]
[1]; 0.031 kg/ha
  Herbicidal effect rating, AMBEL: 7.2
[1]; 0.063 kg/ha
  Herbicidal effect rating, AMBEL: 8.0
[1]; 0.125 kg/ha
  Herbicidal effect rating, AMBEL: 8.5
[1]; 0.250 kg/ha
  Herbicidal effect rating, AMBEL: 8.9
[2]; 0.031 kg/ha
  Herbicidal effect rating, GALAP: 7.3
[2]; 0.063 kg/ha
  Herbicidal effect rating, GALAP: 8.4
[2]; 0.125 kg/ha
  Herbicidal effect rating, GALAP: 8.8
[2]; 0.250 kg/ha
  Herbicidal effect rating, GALAP: 8.1
[3]; 0.031 kg/ha
  Herbicidal effect rating, CASOB: 8.6
[3]; 0.063 kg/ha
  Herbicidal effect rating, CASOB: 8.4
[3]; 0.125 kg/ha
  Herbicidal effect rating, CASOB: 9.0
[3]; 0.250 kg/ha
  Herbicidal effect rating, CASOB: 8.4
[4]; 0.031 kg/ha
  Herbicidal effect rating, ABUTH: 8.9
[4]; 0.063 kg/ha
  Herbicidal effect rating, ABUTH: 8.9
[4]; 0.125 kg/ha
  Herbicidal effect rating, ABUTH: 9.0
[4]; 0.250 kg/ha
  Herbicidal effect rating, ABUTH: 9.0
[4]; Rate 0.125 kg/ha
  ABUTH, herbicide rating (0-9): 9.0
[4]; Rate 0.250 kg/ha
  ABUTH, herbicide rating (0-9): 9.0
[4]; Rate 0.500 kg/ha
  ABUTH, herbicide rating (0-9): 9.0
[5]; 0.031 kg/ha
  Herbicidal effect rating, IPOSS: 8.9
[5]; 0.063 kg/ha
  Herbicidal effect rating, IPOSS: 8.9
[5]; 0.125 kg/ha
  Herbicidal effect rating, IPOSS: 9.0
[5]; 0.250 kg/ha
  Herbicidal effect rating, IPOSS: 9.0
[5]; Rate 0.125 kg/ha
  IPOSS, herbicide rating (0-9): 9.0
[5]; Rate 0.250 kg/ha
  IPOSS, herbicide rating (0-9): 9.0
[5]; Rate 0.500 kg/ha
  IPOSS, herbicide rating (0-9): 9.0
[6]; Rate 0.125 kg/ha
  CHEAL rating: 9.0
[6]; Rate 0.250 kg/ha
  CHEAL rating: 9.0
[6]; Rate 0.500 kg/ha
  CHEAL rating: 9.0
[7]; 0.031 kg/ha
  Herbicidal effect rating, ECHCG: 3.8
[7]; 0.063 kg/ha
  Herbicidal effect rating, ECHCG: 6.0
[7]; 0.125 kg/ha
  Herbicidal effect rating, ECHCG: 8.2
[7]; 0.250 kg/ha
  Herbicidal effect rating, ECHCG: 8.9
[8]; 0.031 kg/ha
  Herbicidal effect rating, ZEAMX: 8.1
[8]; 0.063 kg/ha
  Herbicidal effect rating, ZEAMX: 8.7
[8]; 0.125 kg/ha
  Herbicidal effect rating, ZEAMX: 8.9
[8]; 0.250 kg/ha
  Herbicidal effect rating, ZEAMX: 8.9
[8]; Rate 0.125 kg/ha
  ZEAMX, herbicide rating (0-9): 8.8
[8]; Rate 0.250 kg/ha
  ZEAMX, herbicide rating (0-9): 8.8
[8]; Rate 0.500 kg/ha
  ZEAMX, herbicide rating (0-9): 8.8
[9]; 0.031 kg/ha
  Herbicidal effect rating, CHEAL: 7.9
[9]; 0.063 kg/ha
  Herbicidal effect rating, CHEAL: 8.8
[9]; 0.125 kg/ha
  Herbicidal effect rating, CHEAL: 8.9
[9]; 0.250 kg/ha
  Herbicidal effect rating, CHEAL: 9.0
[10]; 0.031 kg/ha
  Herbicidal effect rating, TRZAWO: 6.3
[10]; 0.063 kg/ha
  Herbicidal effect rating, TRZAWO: 7.3
[10]; 0.125 kg/ha
  Herbicidal effect rating, TRZAWO: 8.1
[10]; 0.250 kg/ha
  Herbicidal effect rating, TRZAWO: 8.2
[11]; Rate 0.063 kg/ha
  ORYSAT herbicidal rating (rice tolerance): 2.0
  ORYSAT: 2.1
[11]; Rate 0.125 kg/ha
  ORYSAT herbicidal rating (rice tolerance): 3.2
  ORYSAT: 3.6
[11]; Rate 0.250 kg/ha
  ORYSAT herbicidal rating (rice tolerance): 3.8
  ORYSAT: 3.7
[11]; Rate 0.500 kg/ha
  ORYSAT herbicidal rating (rice tolerance): 4.7
[11]; Rate 0.031 kg/ha
  ORYSAT: 1.6

## COC(=O)Cn1c(=O)n(C)c(=O)n(-c2cc(Oc3ccc(C(F)(F)F)cc3Cl)ccc2[N+](=O)[O-])c1=O [Compound 3, Methyl 3-{5-[(2-chloro-α,α,α-trifluoro-p-tolyl)oxy]-2-nitrophenyl}tetrahydro-5-methyl-2,4,6-trioxo-s-triazine-1(2H)-acetate]
[1]; 0.031 kg/ha
  Herbicidal effect rating, AMBEL: 8.3
[1]; 0.063 kg/ha
  Herbicidal effect rating, AMBEL: 8.6
[1]; 0.125 kg/ha
  Herbicidal effect rating, AMBEL: 8.8
[1]; 0.250 kg/ha
  Herbicidal effect rating, AMBEL: 9.0
[2]; 0.031 kg/ha
  Herbicidal effect rating, GALAP: 8.2
[2]; 0.063 kg/ha
  Herbicidal effect rating, GALAP: 8.3
[2]; 0.125 kg/ha
  Herbicidal effect rating, GALAP: 8.7
[2]; 0.250 kg/ha
  Herbicidal effect rating, GALAP: 8.4
[3]; 0.031 kg/ha
  Herbicidal effect rating, CASOB: 7.7
[3]; 0.063 kg/ha
  Herbicidal effect rating, CASOB: 8.4
[3]; 0.125 kg/ha
  Herbicidal effect rating, CASOB: 8.8
[3]; 0.250 kg/ha
  Herbicidal effect rating, CASOB: 8.4
[4]; 0.031 kg/ha
  Herbicidal effect rating, ABUTH: 7.3
[4]; 0.063 kg/ha
  Herbicidal effect rating, ABUTH: 8.1
[4]; 0.125 kg/ha
  Herbicidal effect rating, ABUTH: 8.8
[4]; 0.250 kg/ha
  Herbicidal effect rating, ABUTH: 8.9
[5]; 0.031 kg/ha
  Herbicidal effect rating, IPOSS: 7.6
[5]; 0.063 kg/ha
  Herbicidal effect rating, IPOSS: 8.3
[5]; 0.125 kg/ha
  Herbicidal effect rating, IPOSS: 8.9
[5]; 0.250 kg/ha
  Herbicidal effect rating, IPOSS: 8.9
[6]; Rate 0.125 kg/ha
  CHEAL rating: 9.0
[6]; Rate 0.250 kg/ha
  CHEAL rating: 9.0
[6]; Rate 0.500 kg/ha
  CHEAL rating: 9.0
[7]; 0.031 kg/ha
  Herbicidal effect rating, ECHCG: 4.3
[7]; 0.063 kg/ha
  Herbicidal effect rating, ECHCG: 5.1
[7]; 0.125 kg/ha
  Herbicidal effect rating, ECHCG: 6.7
[7]; 0.250 kg/ha
  Herbicidal effect rating, ECHCG: 7.9
[8]; 0.031 kg/ha
  Herbicidal effect rating, ZEAMX: 4.6
[8]; 0.063 kg/ha
  Herbicidal effect rating, ZEAMX: 4.8
[8]; 0.125 kg/ha
  Herbicidal effect rating, ZEAMX: 5.8
[8]; 0.250 kg/ha
  Herbicidal effect rating, ZEAMX: 6.9
[9]; 0.031 kg/ha
  Herbicidal effect rating, CHEAL: 5.1
[9]; 0.063 kg/ha
  Herbicidal effect rating, CHEAL: 6.0
[9]; 0.125 kg/ha
  Herbicidal effect rating, CHEAL: 7.2
[9]; 0.250 kg/ha
  Herbicidal effect rating, CHEAL: 7.4
[10]; 0.031 kg/ha
  Herbicidal effect rating, TRZAWO: 6.1
[10]; 0.063 kg/ha
  Herbicidal effect rating, TRZAWO: 6.8
[10]; 0.125 kg/ha
  Herbicidal effect rating, TRZAWO: 7.1
[10]; 0.250 kg/ha
  Herbicidal effect rating, TRZAWO: 7.6
[11]; Rate 0.063 kg/ha
  ORYSAT herbicidal rating (rice tolerance): 2.7
  ORYSAT: 2.7
[11]; Rate 0.125 kg/ha
  ORYSAT herbicidal rating (rice tolerance): 3.0
  ORYSAT: 3.0
[11]; Rate 0.250 kg/ha
  ORYSAT herbicidal rating (rice tolerance): 3.8
  ORYSAT: 3.8
[11]; Rate 0.500 kg/ha
  ORYSAT herbicidal rating (rice tolerance): 4.0
[11]; Rate 0.031 kg/ha
  ORYSAT: 1.0
